# Earlier results as cited in patent US11406602B2, “Substances for reducing occurrence of major cardiac events comprising red yeast rice extract and omega-3 polyunsaturated fatty acid or derivative thereof” (NORDIC NATURALS, INC., priority 2007, dated 2022).
# Legend:
# [1] = prior art description of lovastatin
# patients = conditions: 20 mg/day for 24 weeks
# [2] = 10, 20, and 40 mg/day
structure (smiles),measurement,setting,value
"CC[C@H](C)C(=O)O[C@H]1C[C@@H](C)C=C2C=C[C@H](C)[C@H](CC[C@@H]3C[C@@H](O)CC(=O)O3)[C@H]21 [Lovastatin, lovastatin]",decrease in triglycerides,slight decreases,5-10%
same,increase in high density lipoproteins (HDL),slight to moderate increases,10-20%
same,water solubility,[1],water insoluble
same,fall in total cholesterol,patients,26%
same,fall in triglycerides,patients,12%
same,reduction in LDL,[2],21-32%
same,reduction in total cholesterol,[2],16-24%
same,reduction in triglycerides,[2]; higher reduction at lower dosage,10 to 6%
